Source: ChEMBL document CHEMBL5335839, “Synthesis and structure-activity relationship of novel thiazole aminoguanidines against MRSA and Escherichia coli” (RSC Med Chem, 2024)
≈ marks a conversion by molar mass, not a printed value. Calls of active or inactive are those of the source. The rule behind the calls is not given here.

What was measured:
Escherichia coli [1] = experiment: Antibacterial activity against Escherichia coli ATCC 8739 incubated for 24 hrs by broth microdilution method; format: functional
Escherichia coli [2] = experiment: Ratio of MBC to MIC against Escherichia coli ATCC 8739 measured after 24 hrs; format: functional
Staphylococcus aureus [3] = experiment: Antibacterial activity against Staphylococcus aureus ATCC 6538P incubated for 24 hrs by broth microdilution method; format: functional
Staphylococcus aureus [4] = experiment: Ratio MBC to MIC against Staphylococcus aureus ATCC 6538P measured after 24 hrs; format: functional
Staphylococcus aureus [5] = experiment: Antibacterial activity against methicillin resistant Staphylococcus aureus ATCC 33591 incubated for 24 hrs by broth dilution method; format: functional
Staphylococcus aureus [6] = experiment: Ratio MBC to MIC methicillin resistant Staphylococcus aureus ATCC 33591 measured after 24 hrs; format: functional
[7] = Hemolytic activity in rabbit RBC assessed as hemolysis rate at 10 times MIC incubated for 3 hrs by ultraviolet spectrophotometry analysis relative to control; format: toxicity, cell-based, Oryctolagus cuniculus, Erythrocyte; details: rabbit red blood cells (erythrocytes), read-out: Activity
Staphylococcus aureus [8] = experiment: Potency index, ratio of norfloxacin MIC to test compound MIC for antibacterial activity against methicillin resistant Staphylococcus aureus ATCC 33591 incubated for 24 hrs by broth dilution method; format: functional
Staphylococcus aureus [9] = experiment: Induction of resistance development in methicillin resistant Staphylococcus aureus ATCC 33591 assessed as fold increase in MIC incubated for 24 hrs and measured at 10th generation relative to first generation; format: functional
Staphylococcus aureus [10] = experiment: Inhibition of biofilm formation in methicillin resistant Staphylococcus aureus ATCC 33591 at 0.25 times MIC incubated for 24 hrs by crystal violet staining based assay relative to control; format: functional
Staphylococcus aureus [11] = experiment: Inhibition of biofilm formation in methicillin resistant Staphylococcus aureus ATCC 33591 at 0.5 times MIC incubated for 24 hrs by crystal violet staining based assay relative to control; format: functional
Staphylococcus aureus [12] = experiment: Anti-biofilm activity against methicillin resistant Staphylococcus aureus ATCC 33591 assessed as biofilm eradication incubated for 24 hrs by crystal violet staining based assay; format: functional, organism-based
Staphylococcus aureus [13] = experiment: Anti-biofilm activity against methicillin resistant Staphylococcus aureus ATCC 33591 assessed as biofilm eradication at MIC incubated for 24 hrs by crystal violet staining based assay relative to control; format: functional
[14] = Hemolytic activity in rabbit RBC assessed as hemolysis rate at 2 times MIC incubated for 3 hrs by ultraviolet spectrophotometry analysis relative to control; format: toxicity, cell-based, Oryctolagus cuniculus, Erythrocyte; details: rabbit red blood cells (erythrocytes), read-out: Activity
[15] = Hemolytic activity in rabbit RBC assessed as hemolysis rate at 4 times MIC incubated for 3 hrs by ultraviolet spectrophotometry analysis relative to control; format: toxicity, cell-based, Oryctolagus cuniculus, Erythrocyte; details: rabbit red blood cells (erythrocytes), read-out: Activity
[16] = Hemolytic activity in rabbit RBC assessed as hemolysis rate at 6 times MIC incubated for 3 hrs by ultraviolet spectrophotometry analysis relative to control; format: toxicity, cell-based, Oryctolagus cuniculus, Erythrocyte; details: rabbit red blood cells (erythrocytes), read-out: Activity
[17] = Hemolytic activity in rabbit RBC assessed as hemolysis rate at 8 times MIC incubated for 3 hrs by ultraviolet spectrophotometry analysis relative to control; format: toxicity, cell-based, Oryctolagus cuniculus, Erythrocyte; details: rabbit red blood cells (erythrocytes), read-out: Activity
[18] = (§1) Inhibition of Escherichia coli ATCC 8739 UPPS using farnesyl pyrophosphate and isopentenyl pyrophosphate as a substrates preincubated for 30 min followed by EcPPA addition and measured after 30 min by malachite green dye based absorbance analysis
Escherichia coli [19] = experiment: as §1; details: time 60.0 min
Escherichia coli [20] = experiment: Noncompetitive inhibition of Escherichia coli ATCC 8739 UPPS using varying concentrations of farnesyl pyrophosphate as substrate assessed as decrease in Vmax with constant Km at 0 to 64 microg/mL incubated for 30 mins by Lineweaver-Burk plot analysis; details: dose 0-64 µg/ml
Staphylococcus aureus [21] = experiment: Bactericidal activity against methicillin resistant Staphylococcus aureus ATCC 33591 at 1 times MIC measured after 4 hrs by time kill assay; format: functional
Staphylococcus aureus [22] = experiment: Bactericidal activity against methicillin resistant Staphylococcus aureus ATCC 33591 at 2 to 4 times MIC measured after 2 hrs by time kill assay; format: functional
Staphylococcus aureus [23] = experiment: Bactericidal activity against methicillin resistant Staphylococcus aureus ATCC 33591 at 1 to 4 times MIC incubated for 24 hrs by time kill assay; format: functional, organism-based

Row | SMILES | MIC (Escherichia coli [1]) | Ratio (Escherichia coli [2]) | MIC (Staphylococcus aureus [3]) | Ratio (Staphylococcus aureus [4]) | MIC (Staphylococcus aureus [5]) | Ratio (Staphylococcus aureus [6]) | hemolysis at 3 h, 10 x MIC [7] | Ratio (Staphylococcus aureus [8]) | further results
1 | C/C(=N\NC(=N)N)c1sc(N/N=C/c2cccc(F)c2F)nc1C | 64 µg/mL (≈ 182 µM) | 2 | 16 µg/mL (≈ 45.5 µM) | 2 | 16 µg/mL (≈ 45.5 µM) | 1 | < 5% | – | –
2 | C/C(=N\NC(=N)N)c1sc(N/N=C/c2ccc(-c3cccs3)s2)nc1C | 8 µg/mL (≈ 19.8 µM) | 1 | 2 µg/mL (≈ 4.96 µM) | 2 | 8 µg/mL (≈ 19.8 µM) | 1 | 3.3% | 8 | fold change (FC) (Staphylococcus aureus [9]): 2; inhibition (INH) (Staphylococcus aureus [10]): 44%; inhibition (INH) (Staphylococcus aureus [11]): 59%; Activity (Staphylococcus aureus [12]): Dose-Dependent Effect; Activity (Staphylococcus aureus [13]): 70%; hemolysis at 3 h, 2 x MIC [14]: 2.6%; hemolysis at 3 h, 4 x MIC [15]: 2.1%; hemolysis at 3 h, 6 x MIC [16]: 1.7%; hemolysis at 3 h, 8 x MIC [17]: 1.3%; IC50 [18]: 145 µM; inhibition (Escherichia coli [19]): Dose-Dependent Effect; inhibition (Escherichia coli [20]): Dose-Dependent Effect; Activity (Staphylococcus aureus [21]): 100%; Activity (Staphylococcus aureus [22]): 100%
3 | C/C(=N\NC(=N)N)c1sc(N/N=C/c2ccc(-n3cncn3)cc2)nc1C | > 128 µg/mL | – | > 128 µg/mL | – | > 128 µg/mL | – | < 5% | – | –
4 | C/C(=N\NC(=N)N)c1sc(N/N=C/c2cccc(O)c2)nc1C | 32 µg/mL (≈ 96.6 µM) | 1 | 8 µg/mL (≈ 24.1 µM) | 2 | 32 µg/mL (≈ 96.6 µM) | 1 | < 5% | – | –
5 | CCn1cc(C(=O)O)c(=O)c2cc(F)c(N3CCNCC3)cc21 [NORFLOXACIN] | 0.12 µg/mL (≈ 0.376 µM) | >8 | 0.25 µg/mL (≈ 0.783 µM) | 1 | 64 µg/mL (≈ 200 µM) | >2 | – | – | Activity (Staphylococcus aureus [23]): inactive; fold change (FC) (Staphylococcus aureus [9]): 4
6 | C/C(=N\NC(=N)N)c1sc(N/N=C/C=C/c2c(F)cccc2F)nc1C | 32 µg/mL (≈ 84.8 µM) | 1 | 128 µg/mL (≈ 339 µM) | 1 | 32 µg/mL (≈ 84.8 µM) | – | < 5% | – | –
7 | C/C(=N\NC(=N)N)c1sc(N/N=C/c2ccc(O)cc2)nc1C | 64 µg/mL (≈ 193 µM) | 1 | 32 µg/mL (≈ 96.6 µM) | 2 | 128 µg/mL (≈ 386 µM) | >1 | < 5% | – | –
8 | C/C(=N\NC(=N)N)c1sc(N/N=C/c2ccccc2O)nc1C | 64 µg/mL (≈ 193 µM) | 1 | 32 µg/mL (≈ 96.6 µM) | 1 | 64 µg/mL (≈ 193 µM) | – | < 5% | – | –
9 | C/C(=N\NC(=N)N)c1sc(N/N=C/c2cc(F)ccc2F)nc1C | 16 µg/mL (≈ 45.5 µM) | 1 | 8 µg/mL (≈ 22.8 µM) | 1 | 8 µg/mL (≈ 22.8 µM) | – | < 5% | 8 | –
10 | C/C(=N\NC(=N)N)c1sc(N/N=C/c2ccc(-c3ccc(F)cc3)cc2)nc1C | 16 µg/mL (≈ 39.1 µM) | 4 | 4 µg/mL (≈ 9.77 µM) | 1 | 4 µg/mL (≈ 9.77 µM) | – | < 5% | 16 | –
11 | COc1ccc(-c2ccc(/C=N/Nc3nc(C)c(/C(C)=N/NC(=N)N)s3)cc2)cc1 | 128 µg/mL (≈ 304 µM) | >1 | 32 µg/mL (≈ 75.9 µM) | >1 | 32 µg/mL (≈ 75.9 µM) | 1 | < 5% | – | –
12 | C/C(=N\NC(=N)N)c1sc(N/N=C/c2cncs2)nc1C | 64 µg/mL (≈ 198 µM) | 2 | 64 µg/mL (≈ 198 µM) | >2 | 64 µg/mL (≈ 198 µM) | 2 | < 5% | – | –
13 | C/C(=N\NC(=N)N)c1sc(N/N=C/c2ccc(-c3ccc(C(F)(F)F)cc3)cc2)nc1C | 8 µg/mL (≈ 17.4 µM) | 1 | 16 µg/mL (≈ 34.8 µM) | 1 | 8 µg/mL (≈ 17.4 µM) | – | < 5% | 8 | –
14 | C/C(=N\NC(=N)N)c1sc(N/N=C/c2cc(O)cc(O)c2)nc1C | 32 µg/mL (≈ 92.1 µM) | 1 | 32 µg/mL (≈ 92.1 µM) | 1 | 64 µg/mL (≈ 184 µM) | – | < 5% | – | –
15 | C/C(=N\NC(=N)N)c1sc(N/N=C/c2ccc(N3CCCC3)cc2)nc1C | 32 µg/mL (≈ 83.2 µM) | 4 | 32 µg/mL (≈ 83.2 µM) | 1 | 32 µg/mL (≈ 83.2 µM) | – | < 5% | – | –
16 | C/C(=N\NC(=N)N)c1sc(N/N=C/c2ccccc2F)nc1C | 16 µg/mL (≈ 48 µM) | 1 | 16 µg/mL (≈ 48 µM) | 1 | 8 µg/mL (≈ 24 µM) | – | < 5% | 8 | –
